Results reported in ChEMBL document CHEMBL1201862, “PubChem BioAssay data set” (2004).
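Exposure lasted 48 hours, with cells grown in 96-well plates and compounds tested at five concentrations. At the GI50, growth is halved.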 Calls of active or inactive are those of the source. No stated cut-off is given here; in the data, active = GI50 up to about 1.1 µM and inactive = higher.

Columns and labels:
Assay in all cases: growth of human tumour cells (NCI), 48 h
786-0 = test system: 786-0
A498 = test system: A498
A549 = test system: A549
ACHN = test system: ACHN
CAKI-1 = test system: CAKI-1
CCRF-CEM = test system: CCRF-CEM
COLO 205 = test system: COLO 205
DLD-1 = test system: DLD-1
DMS-114 = test system: DMS-114
DMS-273 = test system: DMS-273
EKVX = test system: EKVX
HCC 2998 = test system: HCC 2998
HCT-116 = test system: HCT-116
HCT-15 = test system: HCT-15
HL-60 = test system: HL-60
HOP-18 = test system: HOP-18
HOP-62 = test system: HOP-62
HOP-92 = test system: HOP-92
HT-29 = test system: HT-29
IGROV-1 = test system: IGROV-1
K562 = test system: K562
KM-20L2 = test system: KM-20L2
LOX IMVI = test system: LOX IMVI
LXFL 529 = test system: LXFL 529
M14 = test system: M14
M19-MEL = test system: M19-MEL
MOLT-4 = test system: MOLT-4
Malme-3M = test system: Malme-3M
NCI-H226 = test system: NCI-H226
NCI-H23 = test system: NCI-H23
NCI-H460 = test system: NCI-H460
OVCAR-3 = test system: OVCAR-3
OVCAR-4 = test system: OVCAR-4
OVCAR-5 = test system: OVCAR-5
OVCAR-8 = test system: OVCAR-8
RPMI-8226 = test system: RPMI-8226
RXF 393 = test system: RXF 393
SF-268 = test system: SF-268
SF-295 = test system: SF-295
SF-539 = test system: SF-539
SK-MEL-28 = test system: SK-MEL-28
SK-MEL-2 = test system: SK-MEL-2
SK-MEL-5 = test system: SK-MEL-5
SK-OV-3 = test system: SK-OV-3
SN12C = test system: SN12C
SNB-19 = test system: SNB-19
SNB-75 = test system: SNB-75
SNB-78 = test system: SNB-78
SR = test system: SR
SW-620 = test system: SW-620
TK-10 = test system: TK-10
U-251 = test system: U-251
UACC-257 = test system: UACC-257
UACC-62 = test system: UACC-62
UO-31 = test system: UO-31
KM12 = test system: KM12
NCI-H522 = test system: NCI-H522
XF498 = test system: XF498

For CCOc1ccc(/N=C(/NC(=O)c2ccccc2)SC)cc1, the GI50 (786-0) was > 100 µM (inactive), the GI50 (A498) was > 100 µM (inactive) and the GI50 (A549) was > 100 µM (inactive). For the same compound, the GI50 (ACHN) was > 100 µM (inactive), the GI50 (CAKI-1) was > 100 µM (inactive) and the GI50 (CCRF-CEM) was 87.1 µM (inactive). For the same compound, the GI50 (COLO 205) was > 100 µM (inactive), the GI50 (DLD-1) was > 100 µM (inactive) and the GI50 (DMS-114) was > 100 µM (inactive). For the same compound, the GI50 (DMS-273) was > 100 µM (inactive), the GI50 (EKVX) was > 100 µM (inactive) and the GI50 (HCC 2998) was > 100 µM (inactive). For the same compound, the GI50 (HCT-116) was > 100 µM (inactive), the GI50 (HCT-15) was greater than 100 µM and the GI50 (HL-60) was > 100 µM (inactive). The GI50 (HOP-18) was > 100 µM (inactive), the GI50 (HOP-62) was > 100 µM (inactive) and the GI50 (HOP-92) was > 100 µM (inactive). The GI50 (HT-29) was > 100 µM (inactive), the GI50 (IGROV-1) was > 100 µM (inactive) and the GI50 (K562) was > 100 µM (inactive). For the same compound, the GI50 (KM-20L2) was > 100 µM (inactive), the GI50 (LOX IMVI) was > 100 µM (inactive) and the GI50 (LXFL 529) was > 100 µM (inactive). The GI50 (M14) was > 100 µM (inactive), the GI50 (M19-MEL) was > 100 µM (inactive) and the GI50 (MOLT-4) was > 100 µM (inactive). For the same compound, the GI50 (Malme-3M) was > 100 µM (inactive), the GI50 (NCI-H226) was > 100 µM (inactive) and the GI50 (NCI-H23) was > 100 µM (inactive). The GI50 (NCI-H460) was > 100 µM (inactive), the GI50 (OVCAR-3) was > 100 µM (inactive) and the GI50 (OVCAR-4) was > 100 µM (inactive). For the same compound, the GI50 (OVCAR-5) was > 100 µM (inactive), the GI50 (OVCAR-8) was > 100 µM (inactive) and the GI50 (RPMI-8226) was > 100 µM (inactive). For the same compound, the GI50 (RXF 393) was > 100 µM (inactive), the GI50 (SF-268) was > 100 µM (inactive) and the GI50 (SF-295) was > 100 µM (inactive). For the same compound, the GI50 (SF-539) was > 100 µM (inactive), the GI50 (SK-MEL-28) was > 100 µM (inactive) and the GI50 (SK-MEL-2) was > 100 µM (inactive). The GI50 (SK-MEL-5) was > 100 µM (inactive), the GI50 (SK-OV-3) was > 100 µM (inactive) and the GI50 (SN12C) was > 100 µM (inactive). For the same compound, the GI50 (SNB-19) was > 100 µM (inactive), the GI50 (SNB-75) was > 100 µM (inactive) and the GI50 (SNB-78) was > 100 µM (inactive). The GI50 (SR) was > 100 µM (inactive), the GI50 (SW-620) was 43.4 µM (inactive) and the GI50 (TK-10) was > 100 µM (inactive). For the same compound, the GI50 (U-251) was > 100 µM (inactive), the GI50 (UACC-257) was > 100 µM (inactive) and the GI50 (UACC-62) was > 100 µM (inactive). For the same compound, the GI50 (UO-31) was > 100 µM (inactive).
In the case of CCCCc1c2c(nc3c1CCC/C3=C\c1ccccc1)/C(=C/c1ccccc1)CCC2, the GI50 (786-0) is reported as > 100 µM (inactive), the GI50 (A549) is reported as > 100 µM (inactive) and the GI50 (ACHN) is reported as > 100 µM (inactive). For the same compound, the GI50 (CCRF-CEM) was > 100 µM (inactive), the GI50 (COLO 205) was > 100 µM (inactive) and the GI50 (DMS-114) was > 100 µM (inactive). For the same compound, the GI50 (DMS-273) was > 100 µM (inactive), the GI50 (EKVX) was > 100 µM (inactive) and the GI50 (HCC 2998) was > 100 µM (inactive). For the same compound, the GI50 (HCT-116) was > 100 µM (inactive), the GI50 (HCT-15) was greater than 100 µM and the GI50 (HL-60) was > 100 µM (inactive). For the same compound, the GI50 (HOP-62) was > 100 µM (inactive), the GI50 (HT-29) was > 100 µM (inactive) and the GI50 (IGROV-1) was > 100 µM (inactive). The GI50 (K562) was > 100 µM (inactive), the GI50 (KM-20L2) was > 100 µM (inactive) and the GI50 (KM12) was > 100 µM (inactive). The GI50 (LOX IMVI) was > 100 µM (inactive), the GI50 (LXFL 529) was > 100 µM (inactive) and the GI50 (M14) was > 100 µM (inactive). The GI50 (M19-MEL) was > 100 µM (inactive), the GI50 (MOLT-4) was > 100 µM (inactive) and the GI50 (Malme-3M) was > 100 µM (inactive). The GI50 (NCI-H226) was > 100 µM (inactive), the GI50 (NCI-H23) was > 100 µM (inactive) and the GI50 (NCI-H460) was > 100 µM (inactive). For the same compound, the GI50 (NCI-H522) was > 100 µM (inactive), the GI50 (OVCAR-3) was > 100 µM (inactive) and the GI50 (OVCAR-8) was > 100 µM (inactive). For the same compound, the GI50 (RPMI-8226) was > 100 µM (inactive), the GI50 (SF-268) was > 100 µM (inactive) and the GI50 (SF-295) was > 100 µM (inactive). For the same compound, the GI50 (SF-539) was > 100 µM (inactive), the GI50 (SK-MEL-28) was > 100 µM (inactive) and the GI50 (SK-MEL-5) was > 100 µM (inactive). For the same compound, the GI50 (SK-OV-3) was > 100 µM (inactive), the GI50 (SN12C) was > 100 µM (inactive) and the GI50 (SNB-19) was > 100 µM (inactive). The GI50 (SR) was > 100 µM (inactive), the GI50 (SW-620) was > 100 µM (inactive) and the GI50 (TK-10) was > 100 µM (inactive). The GI50 (U-251) was > 100 µM (inactive), the GI50 (UACC-257) was > 100 µM (inactive) and the GI50 (UACC-62) was > 100 µM (inactive). The GI50 (UO-31) was > 100 µM (inactive) and the GI50 (XF498) was > 100 µM (inactive).
For OCc1ccc(C2CC(c3ccco3)=NN2c2ccccc2)o1 (configuration not stated), the GI50 (786-0) was > 100 µM (inactive), the GI50 (A549) was > 100 µM (inactive) and the GI50 (ACHN) was > 100 µM (inactive). For the same compound, the GI50 (CCRF-CEM) was > 100 µM (inactive), the GI50 (COLO 205) was > 100 µM (inactive) and the GI50 (DMS-114) was > 100 µM (inactive). The GI50 (DMS-273) was > 100 µM (inactive), the GI50 (EKVX) was > 100 µM (inactive) and the GI50 (HCT-116) was > 100 µM (inactive). The GI50 (HCT-15) was greater than 100 µM, the GI50 (HL-60) was > 100 µM (inactive) and the GI50 (HOP-62) was > 100 µM (inactive). For the same compound, the GI50 (HT-29) was > 100 µM (inactive), the GI50 (IGROV-1) was > 100 µM (inactive) and the GI50 (K562) was 86.3 µM (inactive). The GI50 (KM-20L2) was > 100 µM (inactive), the GI50 (KM12) was > 100 µM (inactive) and the GI50 (LOX IMVI) was > 100 µM (inactive). The GI50 (LXFL 529) was > 100 µM (inactive), the GI50 (M14) was > 100 µM (inactive) and the GI50 (M19-MEL) was > 100 µM (inactive). The GI50 (MOLT-4) was > 100 µM (inactive), the GI50 (Malme-3M) was > 100 µM (inactive) and the GI50 (NCI-H226) was > 100 µM (inactive). The GI50 (NCI-H23) was > 100 µM (inactive), the GI50 (NCI-H460) was > 100 µM (inactive) and the GI50 (NCI-H522) was > 100 µM (inactive). For the same compound, the GI50 (OVCAR-3) was > 100 µM (inactive), the GI50 (OVCAR-4) was > 100 µM (inactive) and the GI50 (OVCAR-5) was > 100 µM (inactive). For the same compound, the GI50 (OVCAR-8) was > 100 µM (inactive), the GI50 (RPMI-8226) was > 100 µM (inactive) and the GI50 (RXF 393) was > 100 µM (inactive). For the same compound, the GI50 (SF-268) was > 100 µM (inactive), the GI50 (SF-295) was > 100 µM (inactive) and the GI50 (SF-539) was > 100 µM (inactive). For the same compound, the GI50 (SK-MEL-28) was > 100 µM (inactive), the GI50 (SK-MEL-2) was > 100 µM (inactive) and the GI50 (SK-MEL-5) was > 100 µM (inactive). For the same compound, the GI50 (SN12C) was > 100 µM (inactive), the GI50 (SNB-19) was > 100 µM (inactive) and the GI50 (SNB-75) was 20 µM (inactive). For the same compound, the GI50 (SNB-78) was > 100 µM (inactive), the GI50 (SR) was > 100 µM (inactive) and the GI50 (SW-620) was > 100 µM (inactive). The GI50 (TK-10) was > 100 µM (inactive), the GI50 (U-251) was > 100 µM (inactive) and the GI50 (UACC-62) was > 100 µM (inactive). The GI50 (UO-31) was > 100 µM (inactive) and the GI50 (XF498) was > 100 µM (inactive).
